Test results published in patent US20100016208A1, “PHOTOACTIVATABLE ANTIMICROBIAL AGENTS” (priority 2005, published 2010).

Columns and labels:
[1] = Fluorescence emission spectra of prodrug vs. free photosensitizer (TBO); assay type: physicochemical; details: ethanol, 635 nm excitation
[2] = target: β-lactamase from Enterobacter cloacae (Enterobacter cloacae, UniProt P05364); test: Enzyme-mediated cleavage of the prodrug (fluorescence emission, photosensitizer release); assay type: biochemical
Procedure: Enzyme-mediated cleavage of the prodrug The prodrug obtained was further studied for release of photosensitizer in presence of β-lactamase from Enterobacter cloacae. For the fluorescence emission study of the prodrug, the solvent employed was water, and the excitation wavelength 635 nm in the presence of beta-lactamase enzyme (from Enterobacter cloacae). Time-dependent fluorescence emission was also measured for photosensitizer release from the prodrug in the presence of enzyme. […] Thus, the prodrug was synthesized and characterized.

Sequence of β-lactamase from Enterobacter cloacae (P05364 21-381): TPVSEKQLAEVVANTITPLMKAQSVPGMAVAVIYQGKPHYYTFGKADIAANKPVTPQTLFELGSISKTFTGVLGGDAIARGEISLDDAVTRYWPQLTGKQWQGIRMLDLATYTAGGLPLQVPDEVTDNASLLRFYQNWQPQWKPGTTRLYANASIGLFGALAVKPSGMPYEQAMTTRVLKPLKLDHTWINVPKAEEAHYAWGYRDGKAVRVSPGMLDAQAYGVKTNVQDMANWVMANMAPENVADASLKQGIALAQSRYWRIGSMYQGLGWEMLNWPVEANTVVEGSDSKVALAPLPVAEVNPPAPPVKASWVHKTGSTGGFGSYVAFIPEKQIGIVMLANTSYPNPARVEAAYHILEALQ

## Cephalosporanic Acid-Toluidine BlueO Prodrug
[1]
  reduction in fluorescence emission maxima (quenching of the photosensitizer upon conjugation with the cephalosporin moiety): ~8 fold
[2]; beta-lactamase enzyme (from Enterobacter cloacae)
  enzyme specificity of photosensitizer release: lactamase-specific activity
[2]; water, 635 nm excitation, within minutes of incubation of prodrug with enzyme
  increase in excited stated properties (fluorescence emission) on incubation with enzyme: ~5 fold
